According to patent publication US11498929B2, “Chromenopyrimidine derivatives as phosphatidylinsitol phosphate kinase inhibitors” (Hibercell, Inc., priority 2019, dated 2022):

Legend:
[1] = target: T1, PIP4K2 B (GST-tagged PIP4KtypeIIB) (Homo sapiens, UniProt P78356); assay: Kinase Assay - PIP4K2 B (inhibition of PIP4K2 B kinase assay); type: biochemical; conditions: compounds listed under IC50 bin headings
T1 construct: GST; made in house; host or cells: E. coli
T1 sequence (P78356 1-416): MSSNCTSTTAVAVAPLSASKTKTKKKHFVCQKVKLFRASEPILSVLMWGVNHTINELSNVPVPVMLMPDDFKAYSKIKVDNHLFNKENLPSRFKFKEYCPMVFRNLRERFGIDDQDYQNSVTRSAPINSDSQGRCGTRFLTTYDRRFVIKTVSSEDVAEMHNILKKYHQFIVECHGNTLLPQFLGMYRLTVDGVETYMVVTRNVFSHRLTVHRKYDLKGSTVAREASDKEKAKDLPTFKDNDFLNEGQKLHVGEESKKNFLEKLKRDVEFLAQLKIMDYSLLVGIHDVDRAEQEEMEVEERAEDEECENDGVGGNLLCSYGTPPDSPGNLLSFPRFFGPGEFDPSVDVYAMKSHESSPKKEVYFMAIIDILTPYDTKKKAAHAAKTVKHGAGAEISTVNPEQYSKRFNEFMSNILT
Description: GST tagged PIP4KtypeIIA and B enzymes were overexpressed in E. Coli and purified to >80% homogeneity. Phosphatidyl inositol-5-phosphate (PI5P, Cat. #850152, Avanti Polar Lipids Inc.) was used as the lipid substrate and phosphatidyl ethanolamine (DOPE 18:1, Cat. #850725, Avanti Polar Lipids Inc.) was used as the carrier lipid for assays. Ultrapure ATP and GTP was purchased from Bellbrooke Labs. ADP Glo reagents were obtained from Promega. Transcreener FI reagent was obtained from Bellbrooke labs.
GST-tagged PIP4KtypeIIB (3.4 uL, 2.77 mg/mL) was diluted to 5 mL using HNE buffer to yield 5× enzyme stock (25 nM)
Lipid Preparation: In a 10 mL pyrex glass vial, 1 ug of PI5P and 1 ug of DOPE were suspended in 2.5 mL of HEPES buffer mix and 2.5 mL of H:E buffer. The contents were mixed and sonicated for 3 min to yield a translucent lipid stock.
Compound Preparation: Compounds were stored as 5 mM stocks in neat DMSO as room temperature in glass vials. 5 mM stocks were diluted to 2 mM and then serially diluted (3×) in neat DMSO in 96 well polypropylene plates. From the serially diluted stocks, 3 uL was delivered into 250 uL of 25% DMSO (in water) to generate 5× compound stocks. Typically, the highest compound conc. was 24 uM.
The assay volume was kept at 25 uL. To each well of the reaction plate, 10 uL of lipid stock (1:1 ratio PI5P:DOPE) was delivered. This was followed by the addition of 5 uL of compound in 25% DMSO. Then, to each well, 5 uL of 25 nM (5×) typeIIB enzyme was delivered. The contents were mixed well and incubated for 1 h at 27 C. After 1 h, reaction was initiated by adding 5 uL of 500 uM GTP and the contents were mixed well with a multi-channel pipetteman. The final concentration of the reagents are as follows: 50 mM HEPES, pH 7.3, 10 mM MgCl2, 20 mM NaCl, 0.01% v/v triton-X100, 5% DMSO, 100 uM GTP, 80 uM (2 ug) PI5P, 2 ug DOPE, and 5 nM PIP4KIIB Typically, the highest conc. of compounds was 4.8 uM and the lowest conc. was 0.
After 2 h, the reaction was quenched by adding 25 uL of transcreener FI reagent. The contents were incubated at RT for 1 h and the Fluorescence (Ex:584 Em: 623) was read using Molecular Devices Paradigm plate reader. […] The blanks were averaged and subtracted from all other wells. Using a calibration curve, RFU was converted to uM GDP (product). IC50 was calculated by plotting the residual activity (expressed as % No inhibitor control) vs. log [Inh. conc.]

[2] = target: T2, PIP4K2A (Homo sapiens, UniProt P48426); assay: Kinase Assay - PIP4K2 A (inhibition of PIP4K2 A kinase assay); type: biochemical; conditions: compounds listed under IC50 bin headings
T2 construct: GST; made in house; host or cells: E. coli
T2 sequence (P48426 1-406): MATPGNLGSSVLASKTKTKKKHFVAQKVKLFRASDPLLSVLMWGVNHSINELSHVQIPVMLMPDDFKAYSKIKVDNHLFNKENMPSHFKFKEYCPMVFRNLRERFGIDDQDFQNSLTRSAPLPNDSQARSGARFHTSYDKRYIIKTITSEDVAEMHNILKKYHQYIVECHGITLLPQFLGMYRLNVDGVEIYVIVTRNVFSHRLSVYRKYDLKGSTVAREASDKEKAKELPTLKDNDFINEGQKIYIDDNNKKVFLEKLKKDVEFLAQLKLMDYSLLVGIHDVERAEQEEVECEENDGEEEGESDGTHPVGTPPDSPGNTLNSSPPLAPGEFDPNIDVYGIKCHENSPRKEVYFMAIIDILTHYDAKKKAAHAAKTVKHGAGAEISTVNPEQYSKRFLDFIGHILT
Description: Dilution series of the compounds were prepared in DMSO at 100 times the final assay concentration (n1=n0/3 in 10 points). The compounds were further diluted to three times the assay concentration in assay buffer (20 mM MOPS pH 7.2, 25 mM magnesium chloride, 0.005% Tween 20). 6 μL of the diluted compounds were added to a 384 well assay plate followed by 9 μL of a mix consisting of 4 nM PIP4K2A (full length protein, SignalChem) and 100 μM PI(5)P diC8 (Tebu-Bio). Enzyme and compounds were pre-incubated at room temperature for 15 minutes.
Then 3 μL of a solution containing 60 μM ATP (Promega) in assay buffer was added to the wells containing compound and enzyme and mixing was performed by pipetting several times. The reaction was incubated at room temperature for 1 h. Then 18 μL of ADP-Glo™ Reagent (Promega) was added to stop the kinase reaction and deplete the unconsumed ATP, mixing was performed by pipetting several times. The plate was incubated at room temperature for 40 minutes before addition of 36 μL of Kinase Detection Reagent (Promega) to convert ADP to ATP and introduce luciferase and luciferin to detect ATP. The reaction was incubated at room temperature for 40 minutes before the luminescence was measured in a in a Victor 3V 1420 multilabel counter (Perkin Elmer).
Percent inhibition of the compounds as compared to dimethyl sulfoxide treated control samples was calculated. Compound concentration versus percent inhibition were fitted to generate IC50 values. […]

[3] = tested on: MOLM-16; assay: MOLM-16 EC50 assay; type: cell-based; conditions: MOLM16

Compound	IC50 [1] [µM]	IC50 [2] [µM]	EC50 [3] [µM]
CNC(=O)N1CCOc2ncc(Nc3ncc4c(n3)C(C)(C)Oc3cc(-n5nncc5C)ccc3-4)cc21 [Compound 8, 7-{[5,5-dimethyl-8-(5-methyl-1H-1,2,3-triazol-1-yl)-5H-chromeno[3,4-d]pyrimidin-3-yl]amino}-N-methyl-1H,2H,3H-pyrido[2,3-b][1,4]oxazine-1-carboxamide]	0.001 to 0.01	≤ 0.001	0.1 to 1
Cc1cnnn1-c1ccc2c(c1)OC(C)(C)c1nc(Nc3cnc4c(c3)N(C(=O)NC3CC3)CCO4)ncc1-2 [Compound 9, N-cyclopropyl-7-{[5,5-dimethyl-8-(5-methyl-1H-1,2,3-triazol-1-yl)-5H-chromeno[3,4-d]pyrimidin-3-yl]amino}-1H,2H,3H-pyrido[2,3-b][1,4]oxazine-1-carboxamide]	0.001 to 0.01	≤ 0.001	0.1 to 1
Cc1cnnn1-c1ccc2c(c1)OC(C)(C)c1nc(Nc3cnc4c(c3)N(C(=O)CN(C)C)CCO4)ncc1-2 [Compound 10, 1-(7-{[5,5-dimethyl-8-(5-methyl-1H-1,2,3-triazol-1-yl)-5H-chromeno[3,4-d]pyrimidin-3-yl]amino}-1H,2H,3H-pyrido[2,3-b][1,4]oxazin-1-yl)-2-(dimethylamino)ethan-1-one]	0.001 to 0.01	≤ 0.001	0.1 to 1
CNC(=O)N1CCOc2ncc(Nc3ncc4c(n3)C(C)(C)Oc3cc(-c5nocc5C)ccc3-4)cc21 [Compound 11, 7-{[5,5-dimethyl-8-(4-methyl-1,2-oxazol-3-yl)-5H-chromeno[3,4-d]pyrimidin-3-yl]amino}-N-methyl-1H,2H,3H-pyrido[2,3-b][1,4]oxazine-1-carboxamide]	0.001 to 0.01	≤ 0.001	0.1 to 1
CC(=O)OC(C)C(=O)N1CCOc2ncc(Nc3ncc4c(n3)C(C)(C)Oc3cc(-n5nncc5C)ccc3-4)cc21 (stereo not drawn) [Compound 12, 1-(7-{[5,5-dimethyl-8-(5-methyl-1H-1,2,3-triazol-1-yl)-5H-chromeno[3,4-d]pyrimidin-3-yl]amino}-1H,2H,3H-pyrido[2,3-b][1,4]oxazin-1-yl)-1-oxopropan-2-yl acetate]	0.001 to 0.01	≤ 0.001	> 1
Cc1cnnn1-c1ccc2c(c1)OC(C)(C)c1nc(Nc3cnc4c(c3)N(CC3COC3)CCO4)ncc1-2 [Compound 13, 5,5-dimethyl-8-(5-methyl-1H-1,2,3-triazol-1-yl)-N-{1-[(oxetan-3-yl)methyl]-1H,2H,3H-pyrido[2,3-b][1,4]oxazin-7-yl}-5H-chromeno[3,4-d]pyrimidin-3-amine]	0.001 to 0.01	≤ 0.001	0.1 to 1
Cc1cnnn1-c1ccc2c(c1)OC(C)(C)c1nc(Nc3cncc(CNCCS(C)(=O)=O)c3)ncc1-2 [Compound 14, N-[5,5-dimethyl-8-(5-methyl-1H-1,2,3-triazol-1-yl)-5H-chromeno[3,4-d]pyrimidin-3-yl]-5-{[(2-methanesulfonylethyl)amino]methyl}pyridin-3-amine]	0.001 to 0.01	≤ 0.001	> 1

Next, values leading:

IC50 [1] [µM]	IC50 [2] [µM]	EC50 [3] [µM]	Compound
0.001 to 0.01	≤ 0.001	0.1 to 1	Cc1conc1-c1ccc2c(c1)OC(C)(C)c1nc(Nc3cnc4c(c3)N(C(=O)N(C)C)CCO4)ncc1-2 [Compound 15, 7-{[5,5-dimethyl-8-(4-methyl-1,2-oxazol-3-yl)-5H-chromeno[3,4-d]pyrimidin-3-yl]amino}-N,N-dimethyl-1H,2H,3H-pyrido[2,3-b][1,4]oxazine-1-carboxamide]
0.001 to 0.01	≤ 0.001	> 1	CC(=O)OC1(C(=O)N2CCOc3ncc(Nc4ncc5c(n4)C(C)(C)Oc4cc(-n6nncc6C)ccc4-5)cc32)CC1 [Compound 16, 1-(7-{[5,5-dimethyl-8-(5-methyl-1H-1,2,3-triazol-1-yl)-5H-chromeno[3,4-d]pyrimidin-3-yl]amino}-1H,2H,3H-pyrido[2,3-b][1,4]oxazine-1-carbonyl)cyclopropyl acetate]
0.001 to 0.01	≤ 0.001	0.1 to 1	CCN1CCN(Cc2cncc(Nc3ncc4c(n3)C(C)(C)Oc3cc(-n5nncc5C)ccc3-4)c2)CC1 [Compound 17, N-[5,5-dimethyl-8-(5-methyl-1H-1,2,3-triazol-1-yl)-5H-chromeno[3,4-d]pyrimidin-3-yl]-5-[(4-ethylpiperazin-1-yl)methyl]pyridin-3-amine]
0.01 to 0.1	0.001 to 0.01	0.01 to 0.1	CC1(C)Oc2cc(N3CCCC3=O)ccc2-c2cnc(Nc3cncc(N4CCN(CCO)CC4)c3)nc21 [Compound 19, 1-[3-({5-[4-(2-hydroxyethyl)piperazin-1-yl]pyridin-3-yl}amino)-5,5-dimethyl-5H-chromeno[3,4-d]pyrimidin-8-yl]pyrrolidin-2-one]
0.01 to 0.1	0.001 to 0.01	0.01 to 0.1	CN1CCN(CC(=O)N2CCOc3ncc(Nc4ncc5c(n4)C(C)(C)Oc4cc(N6CCCC6=O)ccc4-5)cc32)CC1 [Compound 22, 1-[5,5-dimethyl-3-({1-[2-(4-methylpiperazin-1-yl)acetyl]-1H,2H,3H-pyrido[2,3-b][1,4]oxazin-7-yl}amino)-5H-chromeno[3,4-d]pyrimidin-8-yl]pyrrolidin-2-one]
0.01 to 0.1	0.001 to 0.01	0.01 to 0.1	CC1(C)Oc2cc(N3CCCC3=O)ccc2-c2cnc(Nc3cnc4c(c3)N(C(=O)NC3CC3)CCO4)nc21 [Compound 23, N-cyclopropyl-7-{[5,5-dimethyl-8-(2-oxopyrrolidin-1-yl)-5H-chromeno[3,4-d]pyrimidin-3-yl]amino}-1H,2H,3H-pyrido[2,3-b][1,4]oxazine-1-carboxamide]
0.01 to 0.1	0.001 to 0.01	0.01 to 0.1	CN(C)C1CCN(c2cncc(Nc3ncc4c(n3)C(C)(C)Oc3cc(N5CCCC5=O)ccc3-4)c2)CC1 [Compound 25, 1-[3-({5-[4-(dimethylamino)piperidin-1-yl]pyridin-3-yl}amino)-5,5-dimethyl-5H-chromeno[3,4-d]pyrimidin-8-yl]pyrrolidin-2-one]
